Assay results taken from patent publication EP1149074B1, “ACETYLENIC SULFONAMIDE THIOL TACE INHIBITORS” (Wyeth Holdings Corporation, priority 1999, dated 2000).

Assays:
THP-1 cells = assay: Human monocytic THP-1 cell differentiation assay for soluble proteins (THP-1 soluble protein assay); format: cell-based; settings: LPS-stimulated THP-1 cells; quantity, unit and concentration not given
Source text: Human Monocytic THP-1 Cell Differentiation Assay For Soluble Proteins (THP-1 Soluble Protein Assay)
Mitogenic stimulation of THP-1 cells cause differentiation into macrophage like cells with concomitant secretion of tumor necrosis factor (TNF-α) and TNF receptor (TNF-R p75/80 and TNF-R p55/60) and Interleukin-8 (IL-8), among other proteins. In addition, non-stimulated THP-1 cells shed both the p75/80 and the […] receptors over time. The release of membrane bound TNF-α and possibly TNF-R p75/80 and TNF-R p55/60, but not IL-8, is mediated by an enzyme called TNF-α converting enzyme or TACE.
THP-1 cells (from ATCC) are a human monocytic cell line which were obtained from the peripheral blood of a person with acute monocytic leukemia. They can be grown in culture and differentiated into macrophage like cells by stimulation with mitogens.
For the assay, THP-1 cells are seeded from an ATCC stock which was previously grown and frozen back at 5 x 10^6/ml/vial. […]
To perform an assay, the THP-1 cells are co-incubated in a 24 well plate with […] of a 24 mg/ml stock of Lipopolysacharide (LPS) (Calbiochem Lot# B13189) at 37°C in 5% CO2 at a concentration of 1.091 x 10^6 cells/ml (1.1 ml/well) for a total of 24 hours. […] Compounds can be evaluated for their effect on basal (non-stimulated) shedding of the receptors by replacing the LPS with […] of THP-1 media. […]
In addition, at the 24 hours timepoint, and the cells for each treatment group are collected by resuspension in 500 µl/well of THP-1 media and transferred into a FACS tube. […] The samples are run on a Becton Dickinson FaxCaliber FLOW cytometry machine and the amount of dye taken up by each cell is measured in the high red wavelength (FL3). […] The percent of live cells is calculated by the number of cells not stained with PI, divided by the total number of cells in the sample. The viability values calculated for the drug treated groups were compared to the viability value calculated for the vehicle treated mitogen stimulated group ("vehicle positive control") to determine the "percent change from control". […]

TACE = TACE (Homo sapiens, UniProt P78536); assay: TACE inhibition test procedure (fluorescent peptidyl substrate); format: biochemical
Description: Test Procedure for Measuring TACE Inhibition
Using 96-well black microtiter plates, each well receives a solution composed of 10 µL TACE (final concentration 1µg/mL), 70µL Tris buffer, pH 7.4 containing 10% glycerol (final concentration 10 mM), and 10 µL of test compound solution in DMSO (final concentration 1µM, DMSO concentration <1%) and incubated for 10 minutes at room temperature. The reaction is initiated by addition of a fluorescent peptidyl substrate (final concentration 100 µM) to each well and then shaking on a shaker for 5 sec.
The reaction is read (excitation 340 nm, emission 420 nm) for 10 min. and the increase in fluorescence over time is plotted as a linear line. The slope of the line is calculated and represents the reaction rate.
The linearity of the reaction rate is confirmed (r^2 >0.85). The mean (x±sem) of the control rate is calculated and compared for statistical significance (p<0.05) with drug-treated rates using Dunnett's multiple comparison test. Dose-response relationships can be generate using multiple doses of drug and IC50 values with 95% CI are estimated using linear regression.

Chain of TACE (P78536 215-824): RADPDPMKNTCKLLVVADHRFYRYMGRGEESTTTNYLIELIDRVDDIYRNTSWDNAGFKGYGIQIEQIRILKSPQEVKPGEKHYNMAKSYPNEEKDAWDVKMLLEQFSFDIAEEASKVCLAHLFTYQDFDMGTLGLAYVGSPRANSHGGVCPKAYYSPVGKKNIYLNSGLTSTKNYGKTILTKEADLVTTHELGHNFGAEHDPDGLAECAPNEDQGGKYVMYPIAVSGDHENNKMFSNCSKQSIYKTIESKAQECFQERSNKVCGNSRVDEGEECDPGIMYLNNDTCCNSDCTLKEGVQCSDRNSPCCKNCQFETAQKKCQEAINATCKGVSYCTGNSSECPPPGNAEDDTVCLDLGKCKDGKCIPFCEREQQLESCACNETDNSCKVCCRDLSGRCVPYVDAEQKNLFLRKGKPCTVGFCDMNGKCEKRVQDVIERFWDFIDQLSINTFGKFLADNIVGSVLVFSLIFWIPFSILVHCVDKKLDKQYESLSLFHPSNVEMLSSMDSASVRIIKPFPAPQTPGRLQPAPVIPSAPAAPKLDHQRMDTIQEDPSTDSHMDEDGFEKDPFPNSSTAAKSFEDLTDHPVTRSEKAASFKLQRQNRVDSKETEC

| IC50 (TACE) [µM] | Compound | THP (THP-1 cells) |
| --- | --- | --- |
| – | CC#CCOc1ccc(S(=O)(=O)N(C)[C@H](C)CS)cc1 [Example 8, 4-But-2-ynyloxy-N-((1R)-2-mercapto-1-methyl-ethyl)-N-methyl-benzenesulfonamide] | 3 |
| 0.362 | CC#CCOc1ccc(S(=O)(=O)N(CCN2CCOCC2)[C@H](C)CS)cc1 [Example 11, 4-(2-Butynyloxy)-N-[(1R)-1-methyl-2-sulfanylethyl]-N-[2-(4-morpholinyl)ethyl]benzenesulfonamide] | 11 |
| 0.263 | CC#CCOc1ccc(S(=O)(=O)N(CCN2CCOCC2)[C@@H](CS)C(N)=O)cc1 [Example 15, (2R)-2-{{[4-(2-Butynyloxy)phenyl]sulfonyl}[2-(4-morpholinyl)ethyl]amino}-3-sulfanylpropanamide] | 19 |
